Settings: Liquid, Capillary tube (Ostwald / Ubbelohde) method

O [water]
viscosity [mPa·s]
Settings	296.7 K	338.3 K	372.4 K	413.62 K	469.4 K	500.22 K	544.23 K	573.7 K
5000 kPa	0.918	0.431	0.286	0.196	–	–	–	–
10000 kPa	0.917	0.434	0.287	0.197	0.138	0.12	0.0983	0.086
20000 kPa	0.915	0.435	0.288	0.201	0.141	0.123	0.1012	0.0891
40000 kPa	0.914	0.44	0.293	0.205	0.145	0.127	0.106	0.095
